Results taken from US20260078341A1, “TREATMENT OF CANCER USING CHIMERIC ANTIGEN RECEPTOR” (Novartis AG, priority 2014, published 2026).
Read-outs that look alike come from different tables or passages of the source. Marks after values point to notes of the source that are not given here.

Columns and labels:
[1] = tested on: A/H1N1/California/07/2009 influenza; assay: Anti-A/H1N1/California/07/2009 influenza IgG and IgM levels in serum; format: in vivo, human; details: baseline to 4 weeks post vaccination, vs placebo
Method: FIGS. 44A and 44B. Graphic representations of IgG and IgM levels before and after influenza vaccination. Levels of anti-A/H1N1/California/07/2009 influenza IgG and IgM were measured in serum obtained from subjects before and 4 weeks post influenza vaccination.

[2] = tested on: A/H1N1/California/07/2009; assay: Anti-influenza IgG and IgM levels in serum; format: in vivo, human; details: 4 weeks after influenza vaccination
Method: The trial was observer-blind because the placebo in the RAD001 0.5 mg daily and 20 mg weekly cohorts differed slightly from the RAD001 tablets in those cohorts. […] The treatment duration for all cohorts was 6 weeks during which time subjects underwent safety evaluations in the clinic every 2 weeks. After subjects had been dosed for 4 weeks, RAD001 steady state levels were measured pre-dose and at one hour post dose. […] Antibody titers to the 3 influenza vaccine strains as well as to 2 heterologous strains (A/H1N1 strain A/New Jersy/8/76 and A/H3N2 strain A/Victoria/361/11) were measured by standard hemagglutination inhibition assay (Kendal, A P et al. (1982) Concepts and procedures for laboratory-based influenza surveillance. Atlanta: Centers for Disease Control and Prevention B17-B35). Levels of IgG and IgM specific for the A/H1N1/California/07/2009 were measured in serum samples taken before and 4 weeks after influenza vaccination as described previously (Spensieri, F. et al. (2013) Proc. Natl. Acad. Sci. USA 110:14330-14335). Results were expressed as fluorescence intensity.

[3] = for Treatment-related AE: Blood cholesterol increased / Treatment-related AE: Conjunctivitis / Treatment-related AE: Diarrhea / Treatment-related AE: Dry mouth / Treatment-related AE: Dyspepsia / Treatment-related AE: Erythema / Treatment-related AE: Fatigue / Treatment-related AE: Headache / Treatment-related AE: Insomnia / Treatment-related AE: Limb discomfort / Treatment-related AE: Low density lipoprotein increased / Treatment-related AE: Mouth ulceration / Treatment-related AE: Mucosal inflammation / Treatment-related AE: Neutropenia / Treatment-related AE: Oral pain / Treatment-related AE: Paresthesia oral / Treatment-related AE: Pruritus / Treatment-related AE: Stomatitis / Treatment-related AE: Thrombocytopenia / Treatment-related AE: Tongue ulceration / Treatment-related AE: Urinary tract infection / Treatment-related AEs: Patients with AE(s) / Treatment-related AEs: Total AE(s): N = 53
[4] = tested on: A/H3N2 strain A/Victoria/361/11; assay: Seroconversion to heterologous A/H3N2 strain; format: in vivo, human; details: for Percentage of subjects who seroconvert to heterologous strain A/H3N2 A/Victoria/361/11: 4 weeks after seasonal influenza vaccination
[5] = tested on: influenza vaccine strains and heterologous influenza strains; assay: Influenza geometric mean titers 4 weeks after vaccination in RAD001 cohorts; format: in vivo, human; details: relative to placebo
Source text: FIGS. 41A and 41B. […] In FIG. 41A, the increase above baseline in influenza geometric mean titers to each of the 3 influenza vaccine strains (H1N1 A/California/07/2009, H3N2 A/Victoria/210/2009, B/Brisbane/60/2008) relative to the increase in the placebo cohort 4 weeks after vaccination is shown for each of the RAD001 dosing cohorts in the intention to treat population. […] FIG. 41B is a graph of the same data as in FIG. 41A for the subset of subjects with baseline influenza titers <=1:40.
The increase above baseline in influenza geometric mean titers to 2 heterologous influenza strains (A/H1N1 strain A/New Jersey/8/76 and A/H3N2 strain A/Victoria/361/11) not contained in the influenza vaccine relative to the increase in the placebo cohort 4 weeks after vaccination is shown for each of the RAD001 dosing cohorts in the intention to treat population. * indicates increase in titer relative to placebo exceeds 1 with a posterior probability of at least 80%.

[6] = Exercise and energy in elderly subjects; format: in vivo, human

Compound: CO[C@H]1C[C@@H]2CC[C@@H](C)[C@@](O)(O2)C(=O)C(=O)N2CCCC[C@H]2C(=O)O[C@H]([C@H](C)C[C@@H]2CC[C@@H](OCCO)[C@H](OC)C2)CC(=O)[C@H](C)/C=C(\C)[C@@H](O)[C@@H](OC)C(=O)[C@H](C)C[C@H](C)/C=C/C=C/C=C/1C [RAD001, (1R,9S,12S,15R,16E,18R,19R,21R,23S,24E,26E,28E,30S,32S,35R)-1,18-dihydroxy-12-{(1R)-2-[(1S,3R,4R)-4-(2-hydroxyethoxy)-3-methoxycyclohexyl]-1-methylethyl}-19,30-dimethoxy-15,17,21,23,29,35-hexamethyl-11,36-dioxa-4-azatricyclo[30.3.1.0^4,9]hexatriaconta-16,24,26,28-tetraene-2,3,10,14,20-pentaone]
- change from baseline in anti-H1N1 influenza IgG and IgM levels [1]: No significant difference
- post-vaccination anti-influenza IgM and IgG levels, RAD001 versus placebo [2]: did not differ
- Treatment-related AE: Blood cholesterol increased ([3]; RAD001 0.5 mg daily): 2 (3.8%) n (%)
- Treatment-related AE: Conjunctivitis ([3]; RAD001 0.5 mg daily): 0 n (%)
- Treatment-related AE: Diarrhea ([3]; RAD001 0.5 mg daily): 1 (1.9%) n (%)
- Treatment-related AE: Dry mouth ([3]; RAD001 0.5 mg daily): 0 n (%)
- Treatment-related AE: Dyspepsia ([3]; RAD001 0.5 mg daily): 0 n (%)
- Treatment-related AE: Erythema ([3]; RAD001 0.5 mg daily): 0 n (%)
- Treatment-related AE: Fatigue ([3]; RAD001 0.5 mg daily): 0 n (%)
- Treatment-related AE: Headache ([3]; RAD001 0.5 mg daily): 0 n (%)
- Treatment-related AE: Insomnia ([3]; RAD001 0.5 mg daily): 1 (1.9%) n (%)
- Treatment-related AE: Limb discomfort ([3]; RAD001 0.5 mg daily): 0 n (%)
- Treatment-related AE: Low density lipoprotein increased ([3]; RAD001 0.5 mg daily): 2 (3.8%) n (%)
- Treatment-related AE: Mouth ulceration ([3]; RAD001 0.5 mg daily): 6 (11.3%) n (%)
- Treatment-related AE: Mucosal inflammation ([3]; RAD001 0.5 mg daily): 0 n (%)
- Treatment-related AE: Neutropenia ([3]; RAD001 0.5 mg daily): 0 n (%)
- Treatment-related AE: Oral pain ([3]; RAD001 0.5 mg daily): 0 n (%)
- Treatment-related AE: Paresthesia oral ([3]; RAD001 0.5 mg daily): 2 (3.8%) n (%)
- Treatment-related AE: Pruritus ([3]; RAD001 0.5 mg daily): 0 n (%)
- Treatment-related AE: Stomatitis ([3]; RAD001 0.5 mg daily): 0 n (%)
- Treatment-related AE: Thrombocytopenia ([3]; RAD001 0.5 mg daily): 0 n (%)
- Treatment-related AE: Tongue ulceration ([3]; RAD001 0.5 mg daily): 3 (5.7%) n (%)
- Treatment-related AE: Urinary tract infection ([3]; RAD001 0.5 mg daily): 0 n (%)
- Treatment-related AEs: Patients with AE(s) ([3]; RAD001 0.5 mg daily): 22 (41.5%) n (%)
- Treatment-related AEs: Total AE(s) ([3]; RAD001 0.5 mg daily): 35 n (%)
- Treatment-related AE: Blood cholesterol increased ([3]; RAD001 5 mg weekly): 2 (3.8%) n (%)
- Treatment-related AE: Conjunctivitis ([3]; RAD001 5 mg weekly): 2 (3.8%) n (%)
- Treatment-related AE: Diarrhea ([3]; RAD001 5 mg weekly): 4 (7.5%) n (%)
- Treatment-related AE: Dry mouth ([3]; RAD001 5 mg weekly): 0 n (%)
- Treatment-related AE: Dyspepsia ([3]; RAD001 5 mg weekly): 3 (5.7%) n (%)
- Treatment-related AE: Erythema ([3]; RAD001 5 mg weekly): 2 (3.8%) n (%)
- Treatment-related AE: Fatigue ([3]; RAD001 5 mg weekly): 2 (3.8%) n (%)
- Treatment-related AE: Headache ([3]; RAD001 5 mg weekly): 2 (3.8%) n (%)
- Treatment-related AE: Insomnia ([3]; RAD001 5 mg weekly): 2 (3.8%) n (%)
- Treatment-related AE: Limb discomfort ([3]; RAD001 5 mg weekly): 2 (3.8%) n (%)
- Treatment-related AE: Low density lipoprotein increased ([3]; RAD001 5 mg weekly): 1 (1.9%) n (%)
- Treatment-related AE: Mouth ulceration ([3]; RAD001 5 mg weekly): 2 (3.8%) n (%)
- Treatment-related AE: Mucosal inflammation ([3]; RAD001 5 mg weekly): 0 n (%)
- Treatment-related AE: Neutropenia ([3]; RAD001 5 mg weekly): 0 n (%)
- Treatment-related AE: Oral pain ([3]; RAD001 5 mg weekly): 2 (3.8%) n (%)
- Treatment-related AE: Paresthesia oral ([3]; RAD001 5 mg weekly): 0 n (%)
- Treatment-related AE: Pruritus ([3]; RAD001 5 mg weekly): 2 (3.8%) n (%)
- Treatment-related AE: Stomatitis ([3]; RAD001 5 mg weekly): 0 n (%)
- Treatment-related AE: Thrombocytopenia ([3]; RAD001 5 mg weekly): 0 n (%)
- Treatment-related AE: Tongue ulceration ([3]; RAD001 5 mg weekly): 1 (1.9%) n (%)
- Treatment-related AE: Urinary tract infection ([3]; RAD001 5 mg weekly): 0 n (%)
- Treatment-related AEs: Patients with AE(s) ([3]; RAD001 5 mg weekly): 20 (37.7%) n (%)
- Treatment-related AEs: Total AE(s) ([3]; RAD001 5 mg weekly): 46 n (%)
- Treatment-related AE: Blood cholesterol increased ([3]; RAD001 20 mg weekly): 2 (3.8%) n (%)
- Treatment-related AE: Conjunctivitis ([3]; RAD001 20 mg weekly): 0 n (%)
- Treatment-related AE: Diarrhea ([3]; RAD001 20 mg weekly): 1 (1.9%) n (%)
- Treatment-related AE: Dry mouth ([3]; RAD001 20 mg weekly): 2 (3.8%) n (%)
- Treatment-related AE: Dyspepsia ([3]; RAD001 20 mg weekly): 2 (3.8%) n (%)
- Treatment-related AE: Erythema ([3]; RAD001 20 mg weekly): 0 n (%)
- Treatment-related AE: Fatigue ([3]; RAD001 20 mg weekly): 4 (7.5%) n (%)
- Treatment-related AE: Headache ([3]; RAD001 20 mg weekly): 9 (17.0%) n (%)
- Treatment-related AE: Insomnia ([3]; RAD001 20 mg weekly): 1 (1.9%) n (%)
- Treatment-related AE: Limb discomfort ([3]; RAD001 20 mg weekly): 0 n (%)
- Treatment-related AE: Low density lipoprotein increased ([3]; RAD001 20 mg weekly): 2 (3.8%) n (%)
- Treatment-related AE: Mouth ulceration ([3]; RAD001 20 mg weekly): 9 (17.0%) n (%)
- Treatment-related AE: Mucosal inflammation ([3]; RAD001 20 mg weekly): 2 (3.8%) n (%)
- Treatment-related AE: Neutropenia ([3]; RAD001 20 mg weekly): 3 (5.7%) n (%)
- Treatment-related AE: Oral pain ([3]; RAD001 20 mg weekly): 1 (1.9%) n (%)
- Treatment-related AE: Paresthesia oral ([3]; RAD001 20 mg weekly): 0 n (%)
- Treatment-related AE: Pruritus ([3]; RAD001 20 mg weekly): 1 (1.9%) n (%)
- Treatment-related AE: Stomatitis ([3]; RAD001 20 mg weekly): 2 (3.8%) n (%)
- Treatment-related AE: Thrombocytopenia ([3]; RAD001 20 mg weekly): 2 (3.8%) n (%)
- Treatment-related AE: Tongue ulceration ([3]; RAD001 20 mg weekly): 0 n (%)
- Treatment-related AE: Urinary tract infection ([3]; RAD001 20 mg weekly): 2 (3.8%) n (%)
- Treatment-related AEs: Patients with AE(s) ([3]; RAD001 20 mg weekly): 27 (50.9%) n (%)
- Treatment-related AEs: Total AE(s) ([3]; RAD001 20 mg weekly): 109 n (%)
- tolerability ([3]; elderly volunteers, 6 weeks, particularly 0.5 mg daily and 5 mg weekly): well tolerated
- Percentage of subjects who seroconvert to heterologous strain A/H3N2 A/Victoria/361/11 ([4]; RAD001 0.5 mg daily): 38%
- Percentage of subjects who seroconvert to heterologous strain A/H3N2 A/Victoria/361/11 ([4]; RAD001 5 mg weekly): 39%*
- Percentage of subjects who seroconvert to heterologous strain A/H3N2 A/Victoria/361/11 ([4]; RAD001 20 mg weekly): 40%*
- H3N2 heterologous strain seroconversion rate ([4]; pooled RAD001 cohorts, versus 20% placebo, p=0.007): 39%
- titers to heterologous influenza strains [5]: increase in titers to heterologous influenza strains as compared to placebo
- titers to influenza vaccine strains [5]: increase in titers to influenza vaccine strains as compared to placebo
- exercise and energy [6]: increases in exercise and energy
